Data published in publication PMC9518264, “Design and synthesis of novel quinazolinone-based derivatives as EGFR inhibitors with antitumor activity” (Journal of Enzyme Inhibition and Medicinal Chemistry, 2022).

Tests used:
[1] = tested on: EKVX; assay: cells; format: cell-based; conditions: Homo sapiens, read-out: growth inhibition % (GI%)
[2] = tested on: OVCAR-4; assay: cells; format: cell-based; conditions: Homo sapiens, OVCAR-4, read-out: growth inhibition % (GI%)
[3] = tested on: HCT-116; assay: cells; format: cell-based; conditions: Homo sapiens, HCT-116, read-out: growth inhibition % (GI%)
[4] = tested on: U251; assay: cells; format: cell-based; conditions: Homo sapiens, U-251, read-out: growth inhibition % (GI%)
[5] = tested on: SN12C; assay: cells; format: cell-based; conditions: Homo sapiens, read-out: growth inhibition % (GI%)
[6] = tested on: COLO-205; assay: cells; format: cell-based; conditions: Homo sapiens, COLO 205, read-out: growth inhibition % (GI%)
[7] = tested on: LOX IMIV; assay: cells; format: cell-based; conditions: Homo sapiens, 60 cell, read-out: growth inhibition % (GI%)
[8] = tested on: SF-295; assay: cells; format: cell-based; conditions: Homo sapiens, SF-295, read-out: growth inhibition % (GI%)
[9] = tested on: CCRF-CEM; assay: cells; format: cell-based; conditions: Homo sapiens, read-out: growth inhibition % (GI%)
[10] = tested on: NCI-H522; assay: cells; format: cell-based; conditions: Homo sapiens, NCI-H522, read-out: growth inhibition % (GI%)
[11] = tested on: UO-31; assay: cells; format: cell-based; conditions: Homo sapiens, UO-31, read-out: growth inhibition % (GI%)
[12] = tested on: T-47D; assay: cells; format: cell-based; conditions: Homo sapiens, T47D, read-out: growth inhibition % (GI%)
[13] = tested on: TK-10; assay: cells; format: cell-based; conditions: Homo sapiens, TK-10, read-out: growth inhibition % (GI%)
[14] = tested on: SR; assay: cells; format: cell-based; conditions: Homo sapiens, read-out: growth inhibition % (GI%)
[15] = tested on: MCF7; assay: cells; format: cell-based; conditions: Homo sapiens, MCF7, read-out: growth inhibition % (GI%)
[16] = tested on: ACHN; assay: cells; format: cell-based; conditions: Homo sapiens, read-out: growth inhibition % (GI%)
[17] = tested on: PC-3; assay: cells; format: cell-based; conditions: Homo sapiens, PC-3, read-out: growth inhibition % (GI%)
[18] = tested on: KM12; assay: cells; format: cell-based; conditions: Homo sapiens, KM12, read-out: growth inhibition % (GI%)
[19] = tested on: SW-620; assay: cells; format: cell-based; conditions: Homo sapiens, SW-620, read-out: growth inhibition % (GI%)
[20] = tested on: OVCAR-8; assay: cells; format: cell-based; conditions: Homo sapiens, OVCAR-8, read-out: growth inhibition % (GI%)
[21] = tested on: SF-268; assay: cells; format: cell-based; conditions: Homo sapiens, SF-268, read-out: growth inhibition % (GI%)
[22] = tested on: HOP-92; assay: cells; format: cell-based; conditions: Homo sapiens, HOP-92, read-out: growth inhibition % (GI%)
[23] = tested on: 786-0; assay: cells; format: cell-based; conditions: Homo sapiens, 786-0, read-out: growth inhibition % (GI%)
[24] = tested on: MDA-MB-435; assay: cells; format: cell-based; conditions: Homo sapiens, MDA-MB-435, read-out: growth inhibition % (GI%)
[25] = tested on: panel of 60 tumour cell lines; assay: NCI 60 cell line antiproliferative screening (SRB), whole panel or subpanels (means, ranges, words); format: cell-based, human; conditions: Homo sapiens, 60 cell, mean over the cell line panel; 10 μM; read-out: Mean growth inhibition % (mean GI%)
[26] = tested on: K-562; assay: cells; format: cell-based; conditions: Homo sapiens, K562, read-out: growth inhibition % (GI%)
[27] = tested on: NCI-H322M; assay: cells; format: cell-based; conditions: Homo sapiens, read-out: growth inhibition % (GI%)
[28] = tested on: MOLT-4; assay: cells; format: cell-based; conditions: Homo sapiens, MOLT-4, read-out: growth inhibition % (GI%)
[29] = tested on: IGROV1; assay: cells; format: cell-based; conditions: Homo sapiens, IGROV-1, read-out: growth inhibition % (GI%)
[30] = tested on: HCC-2998; assay: cells; format: cell-based; conditions: Homo sapiens, HCC 2998, read-out: growth inhibition % (GI%)
[31] = tested on: MDA-MB-231/ATCC; assay: NCI 60 cell line antiproliferative screening (SRB), Breast cancer; format: cell-based; conditions: Homo sapiens, MDA-MB-231, read-out: growth inhibition % (GI%)
[32] = tested on: SK-MEL-5; assay: cells; format: cell-based; conditions: Homo sapiens, SK-MEL-5, read-out: growth inhibition % (GI%)
[33] = tested on: OVCAR-3; assay: NCI 60 cell line antiproliferative screening (SRB), Ovarian cancer; conditions: Homo sapiens, OVCAR-3, read-out: growth inhibition % (GI%)
[34] = tested on: NCI-H226; assay: cells; format: cell-based; conditions: Homo sapiens, NCI-H226, read-out: growth inhibition % (GI%)
[35] = tested on: MDA-MB-468; assay: NCI 60 cell line antiproliferative screening (SRB), Breast cancer; conditions: Homo sapiens, MDA-MB-468, read-out: growth inhibition % (GI%)
[36] = tested on: HOP-62; assay: cells; format: cell-based; conditions: Homo sapiens, HOP-62, read-out: growth inhibition % (GI%)
[37] = tested on: SK-MEL-2; assay: cells; format: cell-based; conditions: Homo sapiens, SK-MEL-2, read-out: growth inhibition % (GI%)
[38] = tested on: SNB-19; assay: cells; format: cell-based; conditions: Homo sapiens, SNB-19, read-out: growth inhibition % (GI%)
[39] = tested on: HT29; assay: cells; format: cell-based; conditions: Homo sapiens, HT-29, read-out: growth inhibition % (GI%)
[40] = tested on: SNB-75; assay: cells; format: cell-based; conditions: Homo sapiens, SNB-75, read-out: growth inhibition % (GI%)
[41] = tested on: A498; assay: cells; format: cell-based; conditions: Homo sapiens, A498, read-out: growth inhibition % (GI%)
[42] = tested on: SK-OV-3; assay: cells; format: cell-based; conditions: Homo sapiens, SK-OV-3, read-out: growth inhibition % (GI%)
[43] = tested on: SK-MEL-28; assay: cells; format: cell-based; conditions: Homo sapiens, SK-MEL-28, read-out: growth inhibition % (GI%)
[44] = tested on: HCT-15; assay: cells; format: cell-based; conditions: Homo sapiens, HCT-15, read-out: growth inhibition % (GI%)
[45] = tested on: A549/ATCC; assay: cells; format: cell-based; conditions: Homo sapiens, A549, read-out: growth inhibition % (GI%)
[46] = tested on: HS 578T; assay: cells; format: cell-based; conditions: Homo sapiens, Hs-578T, read-out: growth inhibition % (GI%)

Question: For `O=C(CSc1nc2ccccc2c(=O)n1-c1ccc(Cl)cc1)NN=Cc1ccc(N2CCCCC2)cc1` [6j, 2-((3–(4-chlorophenyl)-4-oxo-3,4-dihydroquinazolin-2-yl)thio)-N'-(4-(piperidin-1-yl)benzylidene) acetohydrazide], which inhibition at 10 µM [1] is on record?
Answer: The inhibition at 10 µM was 17.9%.

Question: And the inhibition at 10 µM [2]?
Answer: The inhibition at 10 µM was 41.4%.

Question: What about the inhibition at 10 µM [3] of the same molecule?
Answer: Its inhibition at 10 µM is 63.1%.

Question: And the inhibition at 10 µM [4]?
Answer: The inhibition at 10 µM was 49.4%.

Question: What about the inhibition at 10 µM [5] of the same molecule?
Answer: Its inhibition at 10 µM is 37.6%.

Question: What about the inhibition at 10 µM [6] of the same molecule?
Answer: Its inhibition at 10 µM is 17.9%.

Question: What about the inhibition at 10 µM [7] of the same molecule?
Answer: Its inhibition at 10 µM is 56.5%.

Question: And the inhibition at 10 µM [8]?
Answer: Its inhibition at 10 µM is 23.6%.

Question: And the inhibition at 10 µM [9]?
Answer: The inhibition at 10 µM was under 15%.

Question: What about the inhibition at 10 µM [10] of the same molecule?
Answer: Its inhibition at 10 µM is under 15%.

Question: What about the inhibition at 10 µM [11] of the same molecule?
Answer: The inhibition at 10 µM was 47%.

Question: What about the inhibition at 10 µM [12] of the same molecule?
Answer: Its inhibition at 10 µM is 25.4%.

Question: What about the inhibition at 10 µM [13] of the same molecule?
Answer: Its inhibition at 10 µM is under 15%.

Question: And the inhibition at 10 µM [14]?
Answer: Its inhibition at 10 µM is 25.2%.

Question: What about the inhibition at 10 µM [15] of the same molecule?
Answer: The inhibition at 10 µM was 32.5%.

Question: And the inhibition at 10 µM [16]?
Answer: The inhibition at 10 µM was 82.6%.

Question: What about the inhibition at 10 µM [17] of the same molecule?
Answer: The inhibition at 10 µM was 21.4%.

Question: And the inhibition at 10 µM [18]?
Answer: The inhibition at 10 µM was 3.59%.

Question: What about the inhibition at 10 µM [19] of the same molecule?
Answer: The inhibition at 10 µM was 34.1%.

Question: What about the inhibition at 10 µM [20] of the same molecule?
Answer: Its inhibition at 10 µM is 34.7%.

Question: And the inhibition at 10 µM [21]?
Answer: Its inhibition at 10 µM is 65.3%.

Question: What about the inhibition at 10 µM [22] of the same molecule?
Answer: The inhibition at 10 µM was 37.7%.

Question: What about the inhibition at 10 µM [23] of the same molecule?
Answer: Its inhibition at 10 µM is 92.8%.

Question: What about the inhibition at 10 µM [24] of the same molecule?
Answer: Its inhibition at 10 µM is under 15%.

Question: What about the inhibition at 10 µM [25] of the same molecule?
Answer: The inhibition at 10 µM was 34.2%.

Question: And the inhibition at 10 µM [26]?
Answer: Its inhibition at 10 µM is 26.4%.

Question: And the inhibition at 10 µM [27]?
Answer: The inhibition at 10 µM was 23%.

Question: And the inhibition at 10 µM [28]?
Answer: The inhibition at 10 µM was under 15%.

Question: What about the inhibition at 10 µM [29] of the same molecule?
Answer: Its inhibition at 10 µM is 44.5%.

Question: And the inhibition at 10 µM [30]?
Answer: The inhibition at 10 µM was under 15%.

Question: And the inhibition at 10 µM [31]?
Answer: The inhibition at 10 µM was 28.1%.

Question: And the inhibition at 10 µM [32]?
Answer: The inhibition at 10 µM was under 15%.

Question: What about the inhibition at 10 µM [33] of the same molecule?
Answer: The inhibition at 10 µM was 67.2%.

Question: What about the inhibition at 10 µM [34] of the same molecule?
Answer: Its inhibition at 10 µM is 61.8%.

Question: What about the inhibition at 10 µM [35] of the same molecule?
Answer: The inhibition at 10 µM was 20.5%.

Question: What about the inhibition at 10 µM [36] of the same molecule?
Answer: Its inhibition at 10 µM is 81.6%.

Question: And the inhibition at 10 µM [37]?
Answer: Its inhibition at 10 µM is under 15%.

Question: What about the inhibition at 10 µM [38] of the same molecule?
Answer: The inhibition at 10 µM was 56.8%.

Question: What about the inhibition at 10 µM [39] of the same molecule?
Answer: Its inhibition at 10 µM is 39.1%.

Question: And the inhibition at 10 µM [40]?
Answer: The inhibition at 10 µM was 20.1%.

Question: What about the inhibition at 10 µM [41] of the same molecule?
Answer: Its inhibition at 10 µM is 21.5%.

Question: What about the inhibition at 10 µM [42] of the same molecule?
Answer: The inhibition at 10 µM was 69.9%.

Question: What about the inhibition at 10 µM [43] of the same molecule?
Answer: Its inhibition at 10 µM is 15.2%.

Question: What about the inhibition at 10 µM [44] of the same molecule?
Answer: The inhibition at 10 µM was 32.2%.

Question: And the inhibition at 10 µM [45]?
Answer: Its inhibition at 10 µM is 50.6%.

Question: What about the inhibition at 10 µM [46] of the same molecule?
Answer: The inhibition at 10 µM was 62.1%.
